Source: the NIST ThermoML archive (doi:10.1016/j.jct.2016.01.017)
± gives the expanded uncertainty stated by the source.

Assay: activity coefficient (dimensionless); of the first substance listed, at infinite dilution; xn = mol fraction of the nth substance listed
Settings: 100 kPa, Liquid, Chromatography, x1 = 0

C1=CCCCC1 [cyclohexene] + CCCC[n+]1ccc(C#N)cc1.O=S(=O)([N-]S(=O)(=O)C(F)(F)F)C(F)(F)F
activity coefficient (308.15 K): 7.51 ± 0.65 | activity coefficient (318.15 K): 7.4 ± 0.64 | activity coefficient (328.15 K): 7.28 ± 0.63 | activity coefficient (338.15 K): 7.19 ± 0.62 | activity coefficient (348.15 K): 7.1 ± 0.61 | activity coefficient (358.15 K): 7.1 ± 0.61 | activity coefficient (368.15 K): 6.9 ± 0.6

C=Cc1ccccc1 [styrene] + CCCC[n+]1ccc(C#N)cc1.O=S(=O)([N-]S(=O)(=O)C(F)(F)F)C(F)(F)F
activity coefficient (308.15 K): 1.28 ± 0.11 | activity coefficient (318.15 K): 1.36 ± 0.11 | activity coefficient (328.15 K): 1.44 ± 0.12 | activity coefficient (338.15 K): 1.52 ± 0.13 | activity coefficient (348.15 K): 1.6 ± 0.14 | activity coefficient (358.15 K): 1.67 ± 0.14 | activity coefficient (368.15 K): 1.75 ± 0.15

CCCOCCC [dipropyl ether] + CCCC[n+]1ccc(C#N)cc1.O=S(=O)([N-]S(=O)(=O)C(F)(F)F)C(F)(F)F
activity coefficient (308.15 K): 8.88 ± 0.77 | activity coefficient (318.15 K): 8.84 ± 0.76 | activity coefficient (328.15 K): 8.83 ± 0.76 | activity coefficient (338.15 K): 8.78 ± 0.76 | activity coefficient (348.15 K): 8.75 ± 0.76 | activity coefficient (358.15 K): 8.73 ± 0.75 | activity coefficient (368.15 K): 8.71 ± 0.75

CCCCCCCC [octane] + CCCC[n+]1ccc(C#N)cc1.O=S(=O)([N-]S(=O)(=O)C(F)(F)F)C(F)(F)F
activity coefficient (308.15 K): 65 ± 5.6 | activity coefficient (318.15 K): 59.9 ± 5.2 | activity coefficient (328.15 K): 55.3 ± 4.8 | activity coefficient (338.15 K): 51.3 ± 4.4 | activity coefficient (348.15 K): 47.9 ± 4.1 | activity coefficient (358.15 K): 45 ± 4 | activity coefficient (368.15 K): 42.4 ± 3.7

CC(C)CO [2-methyl-1-propanol] + CCCC[n+]1ccc(C#N)cc1.O=S(=O)([N-]S(=O)(=O)C(F)(F)F)C(F)(F)F
activity coefficient (308.15 K): 3.2 ± 0.28 | activity coefficient (318.15 K): 2.93 ± 0.25 | activity coefficient (328.15 K): 2.7 ± 0.23 | activity coefficient (338.15 K): 2.5 ± 0.22 | activity coefficient (348.15 K): 2.32 ± 0.2 | activity coefficient (358.15 K): 2.18 ± 0.19 | activity coefficient (368.15 K): 2.04 ± 0.18

c1ccccc1 [benzene] + CCCC[n+]1ccc(C#N)cc1.O=S(=O)([N-]S(=O)(=O)C(F)(F)F)C(F)(F)F
activity coefficient (308.15 K): 1.07 ± 0.09 | activity coefficient (318.15 K): 1.12 ± 0.09 | activity coefficient (328.15 K): 1.17 ± 0.1 | activity coefficient (338.15 K): 1.22 ± 0.1 | activity coefficient (348.15 K): 1.28 ± 0.11 | activity coefficient (358.15 K): 1.32 ± 0.11 | activity coefficient (368.15 K): 1.38 ± 0.12

COC(C)(C)C [2-methoxy-2-methylpropane] + CCCC[n+]1ccc(C#N)cc1.O=S(=O)([N-]S(=O)(=O)C(F)(F)F)C(F)(F)F
activity coefficient (308.15 K): 3.01 ± 0.26 | activity coefficient (318.15 K): 3.13 ± 0.27 | activity coefficient (328.15 K): 3.24 ± 0.28 | activity coefficient (338.15 K): 3.35 ± 0.29 | activity coefficient (348.15 K): 3.45 ± 0.3 | activity coefficient (358.15 K): 3.56 ± 0.31 | activity coefficient (368.15 K): 3.66 ± 0.32

Cc1cccc(C)c1 [1,3-dimethylbenzene] + CCCC[n+]1ccc(C#N)cc1.O=S(=O)([N-]S(=O)(=O)C(F)(F)F)C(F)(F)F
activity coefficient (308.15 K): 2.13 ± 0.18 | activity coefficient (318.15 K): 2.25 ± 0.19 | activity coefficient (328.15 K): 2.37 ± 0.2 | activity coefficient (338.15 K): 2.49 ± 0.21 | activity coefficient (348.15 K): 2.6 ± 0.22 | activity coefficient (358.15 K): 2.71 ± 0.23 | activity coefficient (368.15 K): 2.83 ± 0.24

CCCCCO [pentan-1-ol] + CCCC[n+]1ccc(C#N)cc1.O=S(=O)([N-]S(=O)(=O)C(F)(F)F)C(F)(F)F
activity coefficient (308.15 K): 3.84 ± 0.33 | activity coefficient (318.15 K): 3.58 ± 0.31 | activity coefficient (328.15 K): 3.36 ± 0.29 | activity coefficient (338.15 K): 3.15 ± 0.27 | activity coefficient (348.15 K): 2.97 ± 0.26 | activity coefficient (358.15 K): 2.81 ± 0.24 | activity coefficient (368.15 K): 2.67 ± 0.23

CCCCCCC [heptane] + CCCC[n+]1ccc(C#N)cc1.O=S(=O)([N-]S(=O)(=O)C(F)(F)F)C(F)(F)F
activity coefficient (308.15 K): 45.8 ± 4 | activity coefficient (318.15 K): 42.5 ± 3.7 | activity coefficient (328.15 K): 39.8 ± 3.4 | activity coefficient (338.15 K): 37.4 ± 3.2 | activity coefficient (348.15 K): 35.3 ± 3.1 | activity coefficient (358.15 K): 33.5 ± 2.9 | activity coefficient (368.15 K): 31.7 ± 2.7

C=CCCCCCCCC [1-decene] + CCCC[n+]1ccc(C#N)cc1.O=S(=O)([N-]S(=O)(=O)C(F)(F)F)C(F)(F)F
activity coefficient (308.15 K): 59.4 ± 5.1 | activity coefficient (318.15 K): 57.3 ± 5 | activity coefficient (328.15 K): 55.2 ± 4.8 | activity coefficient (338.15 K): 53.5 ± 4.6 | activity coefficient (348.15 K): 51.8 ± 4.5 | activity coefficient (358.15 K): 50.4 ± 4.4 | activity coefficient (368.15 K): 49 ± 4.2

CO [methanol] + CCCC[n+]1ccc(C#N)cc1.O=S(=O)([N-]S(=O)(=O)C(F)(F)F)C(F)(F)F
activity coefficient (308.15 K): 1.33 ± 0.11 | activity coefficient (318.15 K): 1.27 ± 0.11 | activity coefficient (328.15 K): 1.21 ± 0.1 | activity coefficient (338.15 K): 1.17 ± 0.1 | activity coefficient (348.15 K): 1.12 ± 0.09 | activity coefficient (358.15 K): 1.08 ± 0.09 | activity coefficient (368.15 K): 1.05 ± 0.09

CCOCC [diethyl ether] + CCCC[n+]1ccc(C#N)cc1.O=S(=O)([N-]S(=O)(=O)C(F)(F)F)C(F)(F)F
activity coefficient (308.15 K): 3.17 ± 0.27 | activity coefficient (318.15 K): 3.24 ± 0.28 | activity coefficient (328.15 K): 3.31 ± 0.29 | activity coefficient (338.15 K): 3.37 ± 0.29 | activity coefficient (348.15 K): 3.44 ± 0.3 | activity coefficient (358.15 K): 3.5 ± 0.3 | activity coefficient (368.15 K): 3.56 ± 0.31

CCCC=O [butanal] + CCCC[n+]1ccc(C#N)cc1.O=S(=O)([N-]S(=O)(=O)C(F)(F)F)C(F)(F)F
activity coefficient (308.15 K): 0.7 ± 0.06 | activity coefficient (318.15 K): 0.738 ± 0.062 | activity coefficient (328.15 K): 0.773 ± 0.065 | activity coefficient (338.15 K): 0.811 ± 0.068 | activity coefficient (348.15 K): 0.848 ± 0.071 | activity coefficient (358.15 K): 0.884 ± 0.073 | activity coefficient (368.15 K): 0.917 ± 0.076
